Data on six compounds can be found in the NIST ThermoML archive (doi:10.1016/j.tca.2007.07.008).

For series [1] the following is noted: for mass density: 298.15 K, 101.33 kPa, Liquid, Vibrating tube method.
Series [2] is described as follows: refractive index (Na D-line) (dimensionless). Particulars: 298.15 K; 101.33 kPa; Liquid; Standard Abbe refractometry.

Numbers after ± are expanded uncertainties.

Turning to `CN1C(=O)N(C)C2C1N(C)C(=O)N2C` (stereo unspecified) [1,3,4,6-tetramethylglycoluril], in series [1] (Crystal), the Normal melting temperature was 228 ± 4 °C.
Usually refractive index stands for a measure of how strongly the sample bends light. By mass density is commonly meant the mass of a sample divided by its volume. On to `CC(=O)N(C)C` [N,N-dimethylethanamide], for which the refractive index in series [2] is 1.436 ± 0.0007. Also, the mass density in series [1] came out at 936.5 ± 0.1 kg/m3.
The matching figures for `CNC=O` [N-methylformamide]: 1.4308 ± 0.0008 and 998.92 ± 0.3 kg/m3.
Consider `CC(C)=O` [acetone], for which the refractive index in series [2] stood at 1.3563 ± 0.0007. The mass density in series [1] came to 784.65 ± 0.16 kg/m3.
The matching figures for `CN(C)C=O` [dimethylformamide]: 1.4276 ± 0.0007 and 943.93 ± 0.13 kg/m3.
For `NC=O` [formamide] the same measures were 1.4465 ± 0.0007 and 1129.15 ± 0.2 kg/m3.
